The values below come from patent US20060122279A1, “Hydrophobic polyamine amides as potent lipopolysaccharide sequestrants” (priority 2004, published 2006).

The assay relates to murine macrophage J774.A1 cells. Nature of the assay: Nitric oxide (NO) inhibition in LPS-stimulated J774.A1 cells (Griess). The class given is cell-based. Here is the method: Murine monocytes (J774.A1 cells) produce measurable quantities of NO on exposure to LPS and provide a model for the rapid assessment of compounds to neutralize LPS activity. […] In all experiments, Polymyxin B (PMB), a decapeptide antibiotic, known to bind and neutralize LPS,^29;47;48 is used as a reference compound.
Nitric oxide production is measured as total nitrite in murine macrophage J774.A1 cells using the Griess reagent system.^53;54 Murine macrophage J774.A1 cells are grown in RPMI-1640 cell-culture medium containing L-glutamine and sodium bicarbonate and supplemented with 10% fetal bovine serum, 1% L-glutamine-penicillin-streptomycin solution, and 200 μg/ml L-arginine at 37° C. in a 5% CO2 atmosphere. Cells are plated at ˜2×10^6/ml in a volume of 40 μl/well, in 384 well, flat-bottomed, cell culture treated microtiter plates until confluency and subsequently stimulated with 100 ng/ml lipopolysaccharide (LPS). Concurrent to LPS stimulation, serially diluted concentrations of test compounds are added to the cell medium and left to incubate overnight for 16 h. Polymyxin B is used as reference compound in each plate. Positive—(LPS stimulation only) and negative-controls (J774.A1 medium only) are included in each experiment. Nitrite concentrations are measured adding 30 μl of supernatant to equal volumes of Griess reagents (50 μl/well; 0.1% NED solution in ddH2O and 1% sulfanilamide, 5% phosphoric acid solution in ddH2O) and incubating for 15 minutes at room temperature in the dark. Absorbance at 535 nm is measured using a Molecular Devices Spectramax M2 multifunction plate reader (Sunnyvale, Calif.). Nitrite concentrations are interpolated from standard curves obtained from serially diluted sodium nitrite standards.

pIC50: −log10 of the molar value. Where two headings read alike, the source gives them in different places.

Regarding `CCCCCCCCCCCCCCCCCC(=O)NCCCCC(N)C(=O)NCCCNCCCCNCCCN` [Compound 8, D-Lys-ε-(stearoyl)-N^1-spermine], the pIC50 was 5.70 (J774.A1 cells, 100 ng/ml LPS, 16 h, Tables 1-3, read-out: NO IC50) and 4.99 (Table 7 focused library, NO inhibition, read-out: NO). Also, where the note is “in words”, the “prevention of LPS-induced NO release from J774.A1 macrophages” value is “high activity”.
